The values below come from patent publication US20240400582A1, “FOUR-MEMBERED FUSED RING COMPOUND AND PREPARATION METHOD AND USE THEREOF” (JIANGSU HANSOH PHARMACEUTICAL GROUP CO., LTD., priority 2021, published 2024).

Test [1] deals with Ba/F3 BCR-ABL1-E255V. The experiment in a line: Inhibition of proliferation of Ba/F3 BCR-ABL1-E255V cells (CellTiter-Glo). It counts as cell-based. Conditions: Mus musculus, BaF3, 72 h. From the text: (§1) To evaluate the inhibitory activity of the compound of the present invention against proliferation of the Ba/F3 BCR-ABL1-T315I, Ba/F3 BCR-ABL1-E255K, Ba/F3 BCR-ABL1-E255V, and Ba/F3 BCR-ABL1-G250E mutation models of mouse primary B cells cultured in vitro.
(§2) CellTiter-Glo® Luminescent Cell Viability Assay was used to detect the inhibitory effect of drugs on tumor cell proliferation and growth. The logarithmic growth phase cells cultured overnight were directly taken, blown, mixed and counted, the cell density was adjusted according to different cell density requirements, and the cells were prepared into a cell suspension and plated on a 96-well plate. Drugs at different concentrations were added, 3 replicate wells were set for each concentration, and corresponding vehicle controls were eset. […] The maximum concentration of the compounds detected in other cells was 500 nM, with 3.16-fold gradient dilution, and a total of 9 concentrations (500-0.0503 nM). […] The culture plate and its contents were equilibrated to room temperature, the CellTiter-Glo® reagent was added, the contents were mixed on a shaker for 5 min to induce cell lysis, the culture plate was further incubated at room temperature in the dark for 20 min, and the luminescence was read with a microplate reader.

For test [2], the system named is KCL22-s. The experiment in a line: Inhibition of proliferation of KCL22-s cells (CellTiter-Glo). Conditions: Homo sapiens, 72 h, imatinib-sensitive strain. It counts as cell-based. From the text:
(§3) To evaluate the inhibitory activity of the compounds of the present invention against proliferation of human erythroleukemia cells K562, human peripheral blood basophilic leukemia cells Ku812, and human chronic myelogenous leukemia cells KCL22-s and KCL22-r cultured in vitro.
(§4) CellTiter-Glo® Luminescent Cell Viability Assay was used to detect the inhibitory effect of drugs on tumor cell proliferation and growth. The logarithmic growth phase cells cultured overnight were directly taken, blown, mixed and counted, the cell density was adjusted according to different cell density requirements, and the cells were prepared into a cell suspension and plated on a 96-well plate. Drugs at different concentrations were added, three replicate wells were set for each concentration, and corresponding solvent controls were set. The maximum concentration of compound detected was 500 nM, with 3-fold gradient dilution, and a total of 9 concentrations (500-0.076 nM). […] The culture plate and its contents were equilibrated to room temperature, the CellTiter-Glo® reagent was added, the contents were mixed on a shaker for 3 min to induce cell lysis, the culture plate was further incubated at room temperature in the dark for 10 min, and the chemiluminescence signal value was determined by a microplate reader (BioTek SynergyH1).

Test [3] deals with human chronic myeloid leukemia cell line KCL22-s xenograft tumor. The experiment in a line: Anti-tumor efficacy in KCL22-s subcutaneous xenograft tumor model. In kind it is in vivo, BALB/c nude mouse. The conditions noted are these: oral, dosing cycle 15 days. The protocol: To evaluate the efficacy of the test compound on the human chronic myeloid leukemia cell strain KCL22-s in the BALB/c nude mouse subcutaneous xenograft tumor model.
BALB/c nude mice, 8-10 weeks.
The resuscitated cells were placed in a cell culture flask (the cell type, date, name of the person for culture and so on were marked on the flask wall) and then placed in a CO2 incubator (the incubator temperature was 37° C. and the CO2 concentration was 5%) for incubation. • b, The cells were passaged. After passage, the cells continued to be cultured in the CO2 incubator. This process was repeated until the cell number met the in vivo drug efficacy requirements. • c, The cultured cells were collected and counted with a fully automatic cell counter.
• a, According to the tumor growth, the tumor was measured on the 15th day after inoculation and the tumor size was calculated.

Test [4] deals with Ku812. The experiment in a line: Inhibition of proliferation of Ku812 cells (CellTiter-Glo). In kind it is cell-based. Conditions: Homo sapiens, 72 h.
Text: as §3, §4

The subject of test [5] is Ba/F3 BCR-ABL1-T315I. The experiment in a line: Inhibition of proliferation of Ba/F3 BCR-ABL1-T315I cells (CellTiter-Glo). It counts as cell-based. Conditions: Mus musculus, BaF3, 72 h.
Text: as §1, §2

The test system of test [6] is KCL22-r. The experiment in a line: Inhibition of proliferation of KCL22-r cells (CellTiter-Glo). The conditions noted are these: Homo sapiens, 72 h, imatinib-resistant strain. It counts as cell-based.
Text: as §3, §4

The target of test [7] is ABL1 WT kinase (Homo sapiens (Human), UniProt P00519). The experiment in a line: In vitro enzymatic inhibitory activity against ABL1 WT kinase (capillary electrophoresis, EZ reader). The conditions noted are these: maximum concentration 1 μM. In kind it is biochemical. The protocol: Capillary electrophoresis was used to detect the phosphorylation conversion rate of the substrate peptide to determine the IC50 value of the test compound for inhibiting the kinase (ABL1-WT). The maximum concentration of the compound tested in the test was 1000 nM, with 3-fold dilution, and a total of 12 concentrations (1000-0.0056 nM). First, an enzyme reaction system (the concentration of enzyme ABL1-WT was 1.3 nM, the concentration of substrate FLPeptide2 was 1.5 μM, and the reaction factor was 10 mM MgCl2) was prepared. After incubation at room temperature for 30 min, […] of 4×ATP solution was added to start the enzyme reaction. After reacting at room temperature for 90 min, the reaction was stopped by adding a stop buffer (containing 0.5 M EDTA). The sample was analyzed using an EZ reader (analysis conditions: pressure −1.5 PSI, upper voltage current −2250V, lower voltage current −500V, separation time 40 sec, and system delay 100.0 sec).
Sequence of ABL1 WT kinase (P00519 whole entry): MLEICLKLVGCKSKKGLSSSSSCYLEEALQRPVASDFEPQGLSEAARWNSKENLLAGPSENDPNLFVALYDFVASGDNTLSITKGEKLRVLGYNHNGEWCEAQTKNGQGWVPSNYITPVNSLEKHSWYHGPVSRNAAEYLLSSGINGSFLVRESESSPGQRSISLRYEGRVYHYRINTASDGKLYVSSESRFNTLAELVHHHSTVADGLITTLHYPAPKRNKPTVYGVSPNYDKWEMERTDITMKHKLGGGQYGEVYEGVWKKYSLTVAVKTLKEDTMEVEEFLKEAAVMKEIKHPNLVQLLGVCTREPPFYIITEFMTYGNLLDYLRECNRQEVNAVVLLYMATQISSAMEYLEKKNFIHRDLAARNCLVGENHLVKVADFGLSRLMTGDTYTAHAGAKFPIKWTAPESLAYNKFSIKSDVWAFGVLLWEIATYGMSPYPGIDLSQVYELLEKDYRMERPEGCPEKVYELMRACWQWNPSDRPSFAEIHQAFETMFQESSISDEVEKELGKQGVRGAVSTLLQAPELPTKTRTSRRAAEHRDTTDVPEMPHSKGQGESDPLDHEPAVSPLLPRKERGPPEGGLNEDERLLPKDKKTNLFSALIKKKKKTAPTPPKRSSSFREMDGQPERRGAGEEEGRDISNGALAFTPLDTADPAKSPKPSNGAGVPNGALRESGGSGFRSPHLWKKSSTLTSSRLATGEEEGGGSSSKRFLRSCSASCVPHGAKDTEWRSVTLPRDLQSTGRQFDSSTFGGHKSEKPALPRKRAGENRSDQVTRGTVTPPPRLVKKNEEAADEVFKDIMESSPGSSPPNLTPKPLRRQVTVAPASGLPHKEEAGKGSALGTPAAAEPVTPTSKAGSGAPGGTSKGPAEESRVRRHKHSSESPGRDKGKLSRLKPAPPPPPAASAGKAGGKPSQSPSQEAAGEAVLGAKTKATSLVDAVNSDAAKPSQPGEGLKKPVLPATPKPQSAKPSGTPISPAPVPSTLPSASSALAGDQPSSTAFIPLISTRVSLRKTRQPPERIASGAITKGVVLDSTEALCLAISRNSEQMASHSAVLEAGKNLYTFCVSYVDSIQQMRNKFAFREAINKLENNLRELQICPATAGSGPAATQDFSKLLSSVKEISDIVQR
From the conversion rate read by EZ Reader, the remaining activity was calculated according to the following formula.
IC50 was calculated using XLfit, and IC50 was calculated by Formula 201 as the fitting formula.

The subject of test [8] is K562. The experiment in a line: Inhibition of proliferation of K562 cells (CellTiter-Glo). It counts as cell-based. The conditions noted are these: Homo sapiens, 72 h.
Text: as §3, §4

The subject of test [9] is Ba/F3 BCR-ABL1-E255K. The experiment in a line: Inhibition of proliferation of Ba/F3 BCR-ABL1-E255K cells (CellTiter-Glo). In kind it is cell-based. Conditions: Mus musculus, BaF3, 72 h.
Text: as §1, §2

Test [10] relates to Ba/F3 BCR-ABL1-G250E. The experiment in a line: Inhibition of proliferation of Ba/F3 BCR-ABL1-G250E cells (CellTiter-Glo). In kind it is cell-based. Conditions: Mus musculus, BaF3, 72 h.
Text: as §1, §2

`C[C@@H]1COC2NC=NC=C2c2cc(C(=O)Nc3ccc(OC(F)(F)Cl)cc3)cc3nc(C(F)F)n1c23.Cc1ccc(S(=O)(=O)O)cc1` (stereo partly drawn) [Example 1, (3R)-N-(4-(chlorodifluoromethoxy)phenyl)-2-(difluoromethyl)-3-methyl-3,4,5a,6-tetrahydro-5-oxa-1,2a,6,8-tetraazabenzo[4,5]cyclooctyl[1,2,3-cd]indene-11-carboxamide p-toluenesulfonate Salt]: the concentration for half-maximal inhibition (IC50) in test [1] was determined as 7.15 nM; in test [2], 2.99 nM; in [4], 4.13 nM; in test [5], 46.8 nM; in test [6], 14.6 nM; in [7] it was 0.43 nM. Besides, the IC50 in test [8] is 13 nM; in [9], 26.3 nM; in [10], 5.36 nM. The T/C worked out at 7.05% in test [3] (1.5 mg/kg bid), 0.69% in [3] (3 mg/kg bid), 3.98% in test [3] (3 mg/kg qd) and 0.52% in test [3] (7.5 mg/kg bid). Further, the TGI in [3] (1.5 mg/kg bid) is 98.20%; in test [3] (3 mg/kg bid), 187.08%; in test [3] (3 mg/kg qd), 127.26%; in test [3] (7.5 mg/kg bid), 190.62%. Besides, the Tumor volume turned out to be 143 ± 35 mm^3 in test [3] (1.5 mg/kg bid), 14 ± 5 mm^3 in test [3] (3 mg/kg bid), 81 ± 19 mm^3 in [3] (3 mg/kg qd) and 11 ± 7 mm^3 in test [3] (7.5 mg/kg bid).
Consider `Cc1ccc(NC(=O)c2ccc(CN3CCN(C)CC3)cc2)cc1Nc1nccc(-c2cccnc2)n1` [Imatinib, reference compound], for which, in test [3] (75 mg/kg qd), the T/C is recorded as 46.92% and the TGI is recorded as 56.03%.
